Assay results reported in ChEMBL document CHEMBL3822442, “Synthesis and Pharmacological Characterization of Novel Glucagon-like Peptide-2 (GLP-2) Analogues with Low Systemic Clearance” (J Med Chem, 2016).
Active and inactive are the calls of the source. The calls are words filed in the database; no cut-off is given here.

Key:
[1] = molecular target: T1, Glucagon-like peptide 1 receptor (Homo sapiens, UniProt P43220); assay: Agonist activity at human GLP1R expressed in HEK293 cells at 30 nM after 5 hrs by luciferase reporter gene assay; type: cell-based
T1 sequence (P43220 whole entry): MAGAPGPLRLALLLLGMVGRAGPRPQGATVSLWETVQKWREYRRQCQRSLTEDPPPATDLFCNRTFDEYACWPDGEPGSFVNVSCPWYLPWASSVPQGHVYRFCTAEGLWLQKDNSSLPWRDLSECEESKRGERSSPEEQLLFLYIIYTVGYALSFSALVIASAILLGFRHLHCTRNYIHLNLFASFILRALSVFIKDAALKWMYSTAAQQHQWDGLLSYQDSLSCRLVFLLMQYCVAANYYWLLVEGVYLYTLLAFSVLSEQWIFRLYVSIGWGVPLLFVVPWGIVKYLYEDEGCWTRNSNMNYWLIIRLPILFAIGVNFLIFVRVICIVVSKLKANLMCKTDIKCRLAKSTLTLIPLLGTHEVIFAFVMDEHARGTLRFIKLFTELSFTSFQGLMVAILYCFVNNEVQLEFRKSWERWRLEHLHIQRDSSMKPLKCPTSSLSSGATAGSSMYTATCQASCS

[2] = molecular target: Glucagon receptor (Homo sapiens) (UniProt P47871); assay: Agonist activity at human GCGR expressed in HEK293 cells after 5 hrs by luciferase reporter gene assay; type: cell-based
Glucagon receptor (Homo sapiens), sequence (P47871 whole entry): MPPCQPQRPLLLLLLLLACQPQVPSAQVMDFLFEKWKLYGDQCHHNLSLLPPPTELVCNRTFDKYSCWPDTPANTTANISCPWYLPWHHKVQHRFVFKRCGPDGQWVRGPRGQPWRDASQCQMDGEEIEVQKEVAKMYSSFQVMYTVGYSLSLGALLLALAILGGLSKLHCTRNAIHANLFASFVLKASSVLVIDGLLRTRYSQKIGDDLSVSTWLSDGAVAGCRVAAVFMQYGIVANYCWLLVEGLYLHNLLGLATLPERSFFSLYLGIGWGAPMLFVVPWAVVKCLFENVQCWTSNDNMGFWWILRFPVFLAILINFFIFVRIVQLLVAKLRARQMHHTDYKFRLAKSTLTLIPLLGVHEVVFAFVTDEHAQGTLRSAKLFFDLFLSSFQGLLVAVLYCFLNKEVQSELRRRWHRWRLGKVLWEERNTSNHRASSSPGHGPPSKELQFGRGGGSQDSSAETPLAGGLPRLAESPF

[3] = molecular target: T1, Glucagon-like peptide 1 receptor; assay: Agonist activity at human GLP1R expressed in HEK293 cells after 5 hrs by luciferase reporter gene assay; type: cell-based
HEK293 = assay: Selectivity ratio of EC50 for human GLP1R expressed in HEK293 cells to EC50 for human GLP2R expressed in HEK293; type: cell-based
[4] = molecular target: T2, Glucagon-like peptide 2 receptor (Homo sapiens, UniProt O95838); assay: Agonist activity at human GLP2R expressed in HEK293 cells after 5 hrs by luciferase reporter gene assay; type: cell-based
T2 sequence (O95838 whole entry): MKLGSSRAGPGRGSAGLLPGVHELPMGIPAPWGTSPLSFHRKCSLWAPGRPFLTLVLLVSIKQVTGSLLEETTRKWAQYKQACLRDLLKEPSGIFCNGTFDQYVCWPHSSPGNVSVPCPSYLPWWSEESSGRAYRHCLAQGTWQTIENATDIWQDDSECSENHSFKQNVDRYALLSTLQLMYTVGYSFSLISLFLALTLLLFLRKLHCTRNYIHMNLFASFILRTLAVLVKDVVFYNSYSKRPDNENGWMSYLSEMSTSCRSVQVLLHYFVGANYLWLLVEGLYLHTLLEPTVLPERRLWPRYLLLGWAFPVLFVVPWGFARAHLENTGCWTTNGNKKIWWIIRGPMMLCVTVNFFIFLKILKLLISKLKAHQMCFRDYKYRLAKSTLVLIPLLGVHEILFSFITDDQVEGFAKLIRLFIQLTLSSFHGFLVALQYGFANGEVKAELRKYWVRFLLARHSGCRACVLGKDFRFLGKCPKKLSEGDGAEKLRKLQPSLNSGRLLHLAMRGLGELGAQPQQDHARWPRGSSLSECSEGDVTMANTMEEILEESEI

[5] = molecular target: T3, Glucagon-like peptide 2 receptor (Homo sapiens) (UniProt O95838); assay: Potency index, ratio of compound EC50 to compound 2 EC50 for human GLP2R expressed in HEK293 cells; type: cell-based
T3 sequence (whole entry): T2 sequence (O95838 whole entry)

[6] = Systemic clearance in Sprague-Dawley rat at 0.2 mg/kg, iv through cassette dosing measured up to 300 mins by LC/MS/MS analysis; type: ADME, organism-based; conditions: in vivo

| Molecule | Efficacy [1] [%] | Activity [2] | EC50 [3] [nM] | Ratio EC50 (HEK293) | EC50 [4] [nM] | Ratio EC50 [5] | clearance [6] [mL/min/kg] |
| --- | --- | --- | --- | --- | --- | --- | --- |
| CCCCC(NC(=O)[C@H](CCC(=O)O)NC(=O)[C@H](CC(=O)O)NC(=O)[C@H](CO)NC(=O)[C@H](Cc1ccccc1)NC(=O)[C@H](CO)NC(=O)CNC(=O)[C@H](CC(=O)O)NC(=O)CNC(=O)[C@@H](N)Cc1cnc[nH]1)C(=O)N[C@H](Cc1ccc(-c2ccccc2)cc1)C(=O)N[C@H](C(=O)N[C@H](C(=O)N[C@@H](CC(C)C)C(=O)N[C@@H](CC(=O)O)C(=O)N[C@@H](CC(N)=O)C(=O)N[C@@H](CC(C)C)C(=O)N[C@@H](C)C(=O)N[C@@H](C)C(=O)N[C@@H](CCCNC(=N)N)C(=O)N[C@@H](CC(=O)O)C(=O)N[C@@H](Cc1ccccc1)C(=O)N[C@H](C(=O)N[C@@H](CC(N)=O)C(=O)N[C@@H](Cc1c[nH]c2ccccc12)C(=O)N[C@@H](CC(C)C)C(=O)N[C@H](C(=O)N[C@@H](CCC(N)=O)C(=O)N[C@H](C(=O)N[C@@H](CCCCN)C(N)=O)[C@@H](C)O)[C@@H](C)CC)[C@@H](C)CC)[C@@H](C)CC)[C@@H](C)O (stereo partly specified) | 108 | inactive | 39 | 20 | 1.9 | – | – |
| CCCCC(NC(=O)[C@H](CCC(=O)O)NC(=O)[C@H](CC(=O)O)NC(=O)[C@H](CO)NC(=O)[C@H](Cc1ccccc1)NC(=O)[C@H](CO)NC(=O)CNC(=O)[C@H](CC(=O)O)NC(=O)CNC(=O)[C@@H](N)Cc1cnc[nH]1)C(=O)N[C@@H](CC(C)C)C(=O)N[C@H](C(=O)N[C@H](C(=O)N[C@@H](CC(C)C)C(=O)N[C@@H](CC(=O)O)C(=O)N[C@@H](CC(N)=O)C(=O)N[C@@H](CC(C)C)C(=O)N[C@@H](C)C(=O)N[C@@H](C)C(=O)N[C@@H](CCCNC(=N)N)C(=O)N[C@@H](CC(=O)O)C(=O)N[C@@H](Cc1ccccc1)C(=O)N[C@H](C(=O)N[C@@H](CC(N)=O)C(=O)N[C@@H](Cc1c[nH]c2ccccc12)C(=O)N[C@@H](CC(C)C)C(=O)N[C@H](C(=O)N[C@@H](CCC(N)=O)C(=O)N[C@H](C(=O)N[C@@H](CCCCN)C(N)=O)[C@@H](C)O)[C@@H](C)CC)[C@@H](C)CC)[C@@H](C)CC)[C@@H](C)O (stereo partly specified) | 44 | inactive | 180 | – | 0.15 | – | – |
| CCCCC(NC(=O)[C@@H](CCC(=O)O)NC(=O)[C@@H](CC(=O)O)NC(=O)[C@@H](CO)NC(=O)[C@@H](Cc1ccccc1)NC(=O)[C@@H](CO)NC(=O)CNC(=O)[C@@H](CC(=O)O)NC(=O)CNC(=O)[C@@H](N)Cc1cnc[nH]1)C(=O)NC(Cc1ccc(-c2ccccc2)cc1)C(=O)N[C@@H](C(=O)N[C@@H](C(=O)N[C@H](CC(C)C)C(=O)N[C@H](CC(=O)O)C(=O)N[C@H](CC(N)=O)C(=O)N[C@H](CC(C)C)C(=O)N[C@H](C)C(=O)N[C@H](C)C(=O)N[C@H](CCCNC(=N)N)C(=O)N[C@H](CC(=O)O)C(=O)N[C@H](Cc1ccccc1)C(=O)N[C@@H](C(=O)N[C@H](CC(N)=O)C(=O)N[C@@H](Cc1c[nH]c2ccccc12)C(=O)N[C@@H](CC(C)C)C(=O)N[C@H](C(=O)N[C@@H](CCC(N)=O)C(=O)N[C@H](C(=O)N[C@H](CCCCN)C(N)=O)[C@@H](C)O)[C@H](C)CC)[C@@H](C)CC)[C@H](C)CC)[C@H](C)O (stereo partly specified) | 83 | inactive | 21 | 110 | 0.18 | – | – |
| CCCCC(NC(=O)[C@H](CCC(=O)O)NC(=O)[C@H](CC(=O)O)NC(=O)[C@H](CO)NC(=O)[C@H](Cc1ccccc1)NC(=O)[C@H](CO)NC(=O)CNC(=O)[C@H](CC(=O)O)NC(=O)CNC(=O)[C@@H](N)Cc1cnc[nH]1)C(=O)N[C@H](Cc1ccc(Cl)cc1)C(=O)N[C@H](C(=O)N[C@H](C(=O)N[C@@H](CC(C)C)C(=O)N[C@@H](CC(=O)O)C(=O)N[C@@H](CC(N)=O)C(=O)N[C@@H](CC(C)C)C(=O)N[C@@H](C)C(=O)N[C@@H](C)C(=O)N[C@@H](CCCNC(=N)N)C(=O)N[C@@H](CC(=O)O)C(=O)N[C@@H](Cc1ccccc1)C(=O)N[C@H](C(=O)N[C@@H](CC(N)=O)C(=O)N[C@@H](Cc1c[nH]c2ccccc12)C(=O)N[C@@H](CC(C)C)C(=O)N[C@H](C(=O)N[C@@H](CCC(N)=O)C(=O)N[C@H](C(=O)N[C@@H](CCCCN)C(N)=O)[C@@H](C)O)[C@@H](C)CC)[C@@H](C)CC)[C@@H](C)CC)[C@@H](C)O (stereo partly specified) | 86 | inactive | – | 660 | – | – | – |
| H-HGDGSFSDEMNTILDNLAARDFINWLIQTK-NH2 | – | – | > 1000 | > 4500 | 0.22 | 2.4 | 20 |
| CCCCC(NC(=O)[C@H](CCC(=O)O)NC(=O)[C@H](CC(=O)O)NC(=O)[C@H](CO)NC(=O)[C@H](Cc1ccccc1)NC(=O)[C@H](CO)NC(=O)CNC(=O)[C@H](CC(=O)O)NC(=O)CNC(=O)[C@@H](N)Cc1cnc[nH]1)C(=O)N[C@@H](Cc1cnc[nH]1)C(=O)N[C@H](C(=O)N[C@H](C(=O)N[C@@H](CC(C)C)C(=O)N[C@@H](CC(=O)O)C(=O)N[C@@H](CC(N)=O)C(=O)N[C@@H](CC(C)C)C(=O)N[C@@H](C)C(=O)N[C@@H](C)C(=O)N[C@@H](CCCNC(=N)N)C(=O)N[C@@H](CC(=O)O)C(=O)N[C@@H](Cc1ccccc1)C(=O)N[C@H](C(=O)N[C@@H](CC(N)=O)C(=O)N[C@@H](Cc1c[nH]c2ccccc12)C(=O)N[C@@H](CC(C)C)C(=O)N[C@H](C(=O)N[C@@H](CCC(N)=O)C(=O)N[C@H](C(=O)N[C@@H](CCCCN)C(N)=O)[C@@H](C)O)[C@@H](C)CC)[C@@H](C)CC)[C@@H](C)CC)[C@@H](C)O (stereo partly specified) | 35 | inactive | 300 | 680 | 0.44 | – | – |
| CC[C@H](C)[C@H](NC(=O)[C@H](Cc1ccccc1)NC(=O)[C@H](CC(=O)O)NC(=O)[C@H](CCCNC(=N)N)NC(=O)[C@H](C)NC(=O)[C@H](C)NC(=O)[C@H](CC(C)C)NC(=O)[C@H](CC(N)=O)NC(=O)[C@H](CC(=O)O)NC(=O)[C@H](CC(C)C)NC(=O)[C@@H](NC(=O)[C@@H](NC(=O)[C@H](CC(N)=O)NC(=O)[C@H](CCSC)NC(=O)[C@H](CCC(=O)O)NC(=O)[C@H](CC(=O)O)NC(=O)[C@H](CO)NC(=O)[C@H](Cc1ccccc1)NC(=O)[C@H](CO)NC(=O)CNC(=O)[C@H](CC(=O)O)NC(=O)[C@H](C)NC(=O)[C@@H](N)Cc1cnc[nH]1)[C@@H](C)O)[C@@H](C)CC)C(=O)N[C@@H](CC(N)=O)C(=O)N[C@@H](Cc1c[nH]c2ccccc12)C(=O)N[C@@H](CC(C)C)C(=O)N[C@H](C(=O)N[C@@H](CCC(N)=O)C(=O)N[C@H](C(=O)N[C@@H](CCCCN)C(=O)N[C@H](C(=O)N[C@H](C(=O)N[C@@H](CC(=O)O)C(=O)O)[C@@H](C)O)[C@@H](C)CC)[C@@H](C)O)[C@@H](C)CC | 71 | – | – | – | – | – | – |
| CCCCC(NC(=O)[C@H](CCC(=O)O)NC(=O)[C@H](CC(=O)O)NC(=O)[C@H](CO)NC(=O)[C@H](Cc1ccccc1)NC(=O)[C@H](CO)NC(=O)CNC(=O)[C@H](CC(=O)O)NC(=O)CNC(=O)[C@@H](N)Cc1cnc[nH]1)C(=O)N[C@H](Cc1ccccc1)C(=O)N[C@H](C(=O)N[C@H](C(=O)N[C@@H](CC(C)C)C(=O)N[C@@H](CC(=O)O)C(=O)N[C@@H](CC(N)=O)C(=O)N[C@@H](CC(C)C)C(=O)N[C@@H](C)C(=O)N[C@@H](C)C(=O)N[C@@H](CCCNC(=N)N)C(=O)N[C@@H](CC(=O)O)C(=O)N[C@@H](Cc1ccccc1)C(=O)N[C@H](C(=O)N[C@@H](CC(N)=O)C(=O)N[C@@H](Cc1c[nH]c2ccccc12)C(=O)N[C@@H](CC(C)C)C(=O)N[C@H](C(=O)N[C@@H](CCC(N)=O)C(=O)N[C@H](C(=O)N[C@@H](CCCCN)C(N)=O)[C@@H](C)O)[C@@H](C)CC)[C@@H](C)CC)[C@@H](C)CC)[C@@H](C)O (stereo partly specified) | 64 | inactive | – | 1300 | – | – | – |
| CCCCC(NC(=O)[C@H](CCC(=O)O)NC(=O)[C@H](CC(=O)O)NC(=O)[C@H](CO)NC(=O)[C@H](Cc1ccccc1)NC(=O)[C@H](CO)NC(=O)CNC(=O)[C@H](CC(=O)O)NC(=O)CNC(=O)[C@@H](N)Cc1cnc[nH]1)C(=O)N[C@@H](CC(N)=O)C(=O)N[C@H](C(=O)N[C@H](C(=O)N[C@@H](CC(C)C)C(=O)N[C@@H](CC(=O)O)C(=O)N[C@@H](CC(N)=O)C(=O)N[C@@H](CC(C)C)C(=O)N[C@@H](C)C(=O)N[C@@H](C)C(=O)N[C@@H](CCCNC(=N)N)C(=O)N[C@@H](CC(=O)O)C(=O)N[C@@H](Cc1ccccc1)C(=O)N[C@H](C(=O)N[C@@H](CC(N)=O)C(=O)N[C@@H](Cc1c[nH]c2ccccc12)C(=O)N[C@@H](CC(C)C)C(=O)N[C@H](C(=O)N[C@@H](CCC(N)=O)C(=O)N[C@H](C(=O)N[C@H](CCCCN)C(N)=O)[C@@H](C)O)[C@@H](C)CC)[C@@H](C)CC)[C@@H](C)CC)[C@@H](C)O (stereo partly specified) | – | inactive | > 1000 | > 2600 | 0.38 | 1.7 | – |
